Results as given in patent US12139477B2, “Compounds, salts thereof and methods for treatment of diseases” (ACADIA PHARMACEUTICALS INC., priority 2017, dated 2024).

Experiments:
[1] = target: T1, hERG channel (Homo sapiens, UniProt Q12809); assay: hERG assay, whole cell recordings in CHO cells (AVIVA); type: cell-based; details: CHO cells stably expressing hERG, pH 7.4
T1 construct: host or cells: CHO cells, stably transfected
Experimental: The most common mechanism for these adverse events is the inhibition of one or more cardiac potassium channels, in particular hERG. This current is important for cardiac myocyte repolarization and is a common target for drugs that prolong the QT interval. Test articles in this study were therefore characterized to determine their ability to inhibit the hERG channel. Ion channel activity was measured at AVIVA Biosciences Corporation (San Diego, CA), using a stably transfected Chinese Hamster Ovary (CHO) cell line expressing the hERG mRNA.
Cells: AVIVA's CHO cell line, which stably expresses hERG channels, was used for the study. Cells were cultured in DMEM/F12 containing 10% FBS, 1% penicillin/streptomycin and 500 μg/ml G418. Before testing, cells were harvested using Accumax (Innovative Cell Technologies).
Solutions: For electrophysiological recordings, the following solutions were used: External Solution: 2 mM CaCl2); 2 mM MgCl2; 4 mM KCl; 150 mM NaCl; 10 mM Glucose; 10 mM HEPES; 305-315 mOsm; pH 7.4 (adjusted with 5M NaOH); Internal Solution: 140 mM KCl; 10 mM MgCl2; 6 mM EGTA; 5 mM HEPES-Na; 5 mM ATP-Mg; 295-305 mOsm; pH 7.25 (adjusted with 1M KOH).
Electrophysiology: Whole cell recordings were performed using PX 7000A (Axon Instruments) with AVIVA's SealChip™ technology. Cells were voltage clamped at a holding potential of −80 mV. The hERG current was then activated by a depolarizing step to −50 mV for 300 ms. This first step at −50 mV was used as a baseline for measuring peak amplitude of the tail current. Next, a voltage step to +20 mV was applied for 5 s to activate the channels. Finally, a step back to −50 mV for 5 s removed activation and the deactivating tail current was recorded.
Test Article Handling and Dilutions: All test articles were prepared from 10 mM DMSO stock solutions provided by Sponsor. Solutions were mixed by sonication for 20 min, followed by vigorous vortexing. Prior to testing, compounds were diluted to test concentrations in glass vials using External Solution. Dilutions were prepared no longer than 20 min prior to use.
Electrophysiology Procedures: After achieving whole cell configuration, cells were monitored for 90 s to assess stability and then washed with External Solution for 66 s. The voltage protocol previously described was then applied to the cells every 12 s throughout the procedure. Only stable cells with recording parameters above threshold (see Quality Control section) were allowed to enter the drug addition procedure. External solution containing 0.1% DMSO (vehicle) was applied to the cells to establish a baseline. […] Test article solutions were added to cells in 4 separate additions. Cells were kept in test solution until effect of the test article reached steady state, to a maximum of 12 min. Next, 1 μM cisapride (positive control) was added. Finally, washout with External Solution was performed until the recovery current reached steady state.
Data Analysis: Data analysis was performed using DataXpress (Axon Instruments), Clampfit (Axon Instruments) and Origin (OriginLab Corporation) software.

[2] = target: 5HT2A (Homo sapiens, UniProt P28223); assay: Receptor Selection and Amplification (R-SAT) functional assay; type: cell-based; design: expressed in transfected cells; host or cells: NIH3T3 cells, pSI mammalian expression vector; details: NIH3T3 cells; Ki from IC50 by Cheng and Prussoff; read-out: 5-HT2a (pKi) (R-SAT) (converted)
5HT2A, sequence (P28223 whole entry): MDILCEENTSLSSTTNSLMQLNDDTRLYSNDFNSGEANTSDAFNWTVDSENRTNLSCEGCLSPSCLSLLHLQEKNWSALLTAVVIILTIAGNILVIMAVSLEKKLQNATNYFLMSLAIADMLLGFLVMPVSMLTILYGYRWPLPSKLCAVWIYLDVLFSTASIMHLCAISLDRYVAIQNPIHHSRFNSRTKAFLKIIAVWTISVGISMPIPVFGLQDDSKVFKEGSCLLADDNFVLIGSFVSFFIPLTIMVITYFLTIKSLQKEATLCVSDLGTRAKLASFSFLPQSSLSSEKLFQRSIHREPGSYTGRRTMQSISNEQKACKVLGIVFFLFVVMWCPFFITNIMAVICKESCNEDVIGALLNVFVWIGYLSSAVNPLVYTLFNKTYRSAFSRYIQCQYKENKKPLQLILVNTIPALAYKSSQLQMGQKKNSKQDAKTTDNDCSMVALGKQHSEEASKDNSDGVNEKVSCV
Source text: Receptor Selection and Amplification (R-SAT) Assays. […] The IC50 determined in the RSAT assay was converted into a Ki value using the method of Cheng and Prussoff, Biochem Pharmacol., 1973 Dec. 1; 22(23):3099-108. pKi is the negative of the log(Ki).

T1 sequence (Q12809 whole entry): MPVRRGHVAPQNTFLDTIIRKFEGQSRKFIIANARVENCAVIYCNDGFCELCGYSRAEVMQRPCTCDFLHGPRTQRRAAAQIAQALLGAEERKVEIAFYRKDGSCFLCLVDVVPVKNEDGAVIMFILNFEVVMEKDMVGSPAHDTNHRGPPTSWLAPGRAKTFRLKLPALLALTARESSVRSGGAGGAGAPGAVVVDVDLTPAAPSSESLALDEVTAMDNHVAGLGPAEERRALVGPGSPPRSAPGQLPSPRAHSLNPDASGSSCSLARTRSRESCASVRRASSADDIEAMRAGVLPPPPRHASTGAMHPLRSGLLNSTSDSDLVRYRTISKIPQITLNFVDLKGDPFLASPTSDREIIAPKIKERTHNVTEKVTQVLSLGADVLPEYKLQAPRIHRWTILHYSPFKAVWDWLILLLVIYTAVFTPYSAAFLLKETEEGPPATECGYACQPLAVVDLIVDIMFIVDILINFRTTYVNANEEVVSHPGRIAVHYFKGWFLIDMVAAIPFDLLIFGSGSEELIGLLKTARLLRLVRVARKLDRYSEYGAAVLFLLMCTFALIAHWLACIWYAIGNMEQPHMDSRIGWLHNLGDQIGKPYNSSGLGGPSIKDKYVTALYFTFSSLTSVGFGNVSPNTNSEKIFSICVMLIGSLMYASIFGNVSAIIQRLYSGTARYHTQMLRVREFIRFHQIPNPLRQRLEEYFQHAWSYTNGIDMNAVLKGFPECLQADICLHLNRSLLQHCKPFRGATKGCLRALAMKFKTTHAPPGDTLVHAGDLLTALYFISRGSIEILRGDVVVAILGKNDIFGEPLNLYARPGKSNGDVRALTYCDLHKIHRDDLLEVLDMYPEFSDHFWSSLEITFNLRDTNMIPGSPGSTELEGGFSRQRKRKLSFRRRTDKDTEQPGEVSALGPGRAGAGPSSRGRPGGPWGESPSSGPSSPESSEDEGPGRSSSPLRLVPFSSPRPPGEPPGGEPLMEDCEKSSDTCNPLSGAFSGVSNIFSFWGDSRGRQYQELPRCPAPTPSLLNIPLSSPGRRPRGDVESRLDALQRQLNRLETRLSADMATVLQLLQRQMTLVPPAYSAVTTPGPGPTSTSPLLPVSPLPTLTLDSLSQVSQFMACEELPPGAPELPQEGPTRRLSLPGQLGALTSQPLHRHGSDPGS

| SMILES | Ki [2] [nM] | inhibition at 1 µM [1] [%] |
| --- | --- | --- |
| CC(C)Oc1ccc(CNC(=O)N(Cc2ccc(Cl)cc2F)C2CCN(C)CC2)cc1 [Example 137, 1-[(4-chloro-2-fluorophenyl)methyl]-1-(1-methylpiperidin-4-yl)-3-{[4-(propan-2-yloxy)phenyl]methyl}urea; Trifluoroacetic Acid] | 3.98 | 37 |
| CC(C)COc1ccc(CNC(=O)N(Cc2ccc(Cl)cc2F)C2CCN(C)CC2)cc1 [Example 139, 1-[(4-chloro-2-fluorophenyl)methyl]-1-(1-methylpiperidin-4-yl)-3-{[4-(2-methylpropoxy)phenyl]methyl}urea; Trifluoroacetic Acid] | 3.98 | 35 |
| CC(C)Oc1ccc(CNC(=O)N(Cc2ccc(F)cc2F)C2CCNCC2)cc1 [Example 142, 1-[(2,4-difluorophenyl)methyl]-1-(piperidin-4-yl)-3-{[4-(propan-2-yloxy)phenyl]methyl}urea] | 1 | 8 |
| CC(C)Oc1ccc(CNC(=O)N(Cc2ccc(F)cc2F)C2CCN(C)CC2)cc1F [Example 143, 1-[(2,4-difluorophenyl)methyl]-3-{[3-fluoro-4-(propan-2-yloxy)phenyl]methyl}-1-(1-methylpiperidin-4-yl)urea; Trifluoroacetic Acid] | 0.501 | 41 |
| CC(C)Oc1ccc(CNC(=O)N(Cc2ccc(F)cc2F)C2CCN(C)CC2)c(F)c1 [Example 144, 1-[(2,4-difluorophenyl)methyl]-3-{[2-fluoro-4-(propan-2-yloxy)phenyl]methyl}-1-(1-methylpiperidin-4-yl)urea; Trifluoroacetic Acid] | 1 | 37 |
| Cc1cc(CNC(=O)N(Cc2ccc(F)cc2F)C2CCN(C)CC2)ccc1OC(C)C [Example 145, 1-[(2,4-difluorophenyl)methyl]-3-{[3-methyl-4-(propan-2-yloxy)phenyl]methyl}-1-(1-methylpiperidin-4-yl)urea; Trifluoroacetic Acid] | 1.58 | 39 |
| CC(C)(C)Oc1ccc(CNC(=O)N(Cc2ccc(F)cc2F)C2CCNCC2)cc1 [Example 149, 3-{[4-(tert-butoxy)phenyl]methyl}-1-[(2,4-difluorophenyl)methyl]-1-(piperidin-4-yl)urea; Trifluoroacetic Acid] | 1 | 40 |
| CN1CCC(N(Cc2ccc(F)cc2F)C(=O)NCc2ccc(C(C)(F)F)cc2)CC1 [Example 152, 1-{[4-(1,1-difluoroethyl)phenyl]methyl}-3-[(2,4-difluorophenyl)methyl]-3-(1-methylpiperidin-4-yl)urea; Trifluoroacetic Acid] | 2.51 | 38 |

Now from value to compound, other results behind:

| Ki [2] [nM] | SMILES | inhibition at 1 µM [1] [%] |
| --- | --- | --- |
| 0.631 | CN1CCC(N(Cc2ccc(F)cc2F)C(=O)NCc2ccc(OCC3CC3)cc2)CC1 [Example 141, 3-{[4-(cyclopropylmethoxy)phenyl]methyl}-1-[(2,4-difluorophenyl)methyl]-1-(1-methylpiperidin-4-yl)urea] | 42 |
| 2 | C#CCOc1ccc(CNC(=O)N(Cc2ccc(F)cc2F)C2CCN(C)CC2)cc1 [Example 148, 1-[(2,4-difluorophenyl)methyl]-1-(1-methylpiperidin-4-yl)-3-{[4-(prop-2-yn-1-yloxy)phenyl]methyl}urea; Trifluoroacetic Acid] | 33 |
| 2 | CN1CCC(N(Cc2ccc(F)cc2F)C(=O)NCc2ccc(OCCCF)cc2)CC1 [Example 151, 3-[(2,4-difluorophenyl)methyl]-1-{[4-(3-fluoropropoxy)phenyl]methyl}-3-(1-methylpiperidin-4-yl)urea; Trifluoroacetic Acid] | 16 |
| 1.58 | CN1CCC(N(Cc2ccc(F)cc2F)C(=O)NCc2ccc(OC(CF)CF)cc2)CC1 [Example 153, 3-[(2,4-difluorophenyl)methyl]-1-({4-[(1,3-difluoropropan-2-yl)oxy]phenyl}methyl)-3-(1-methylpiperidin-4-yl)urea; Trifluoroacetic Acid] | 29 |
